One data set concerns the target T1, Tyrosinase (Agaricus bisporus, UniProt O42713).
T1 sequence (O42713 whole entry): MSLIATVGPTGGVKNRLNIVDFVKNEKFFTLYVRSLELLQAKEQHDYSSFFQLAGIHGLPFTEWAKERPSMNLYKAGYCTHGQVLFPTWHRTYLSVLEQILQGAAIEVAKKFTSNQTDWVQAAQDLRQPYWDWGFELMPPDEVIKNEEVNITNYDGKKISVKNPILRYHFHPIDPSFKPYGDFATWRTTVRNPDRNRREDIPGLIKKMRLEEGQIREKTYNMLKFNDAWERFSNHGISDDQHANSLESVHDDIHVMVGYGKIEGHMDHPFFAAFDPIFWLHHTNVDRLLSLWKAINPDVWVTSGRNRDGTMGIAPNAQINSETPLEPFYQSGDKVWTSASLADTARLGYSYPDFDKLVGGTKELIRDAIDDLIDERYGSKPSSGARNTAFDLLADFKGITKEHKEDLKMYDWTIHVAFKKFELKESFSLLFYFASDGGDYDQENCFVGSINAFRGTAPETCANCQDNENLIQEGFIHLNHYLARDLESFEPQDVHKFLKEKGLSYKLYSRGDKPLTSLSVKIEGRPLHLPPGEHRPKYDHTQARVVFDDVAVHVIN

Data set [1] deals with T2, Tyrosinase (Agaricus bisporus) (UniProt O42713).
T2 sequence (whole entry): T1 sequence (O42713 whole entry)
In words: Ratio IC50 for Kojic acid to compound for diphenolase activity of mushroom tyrosinase.

Data set [2] can be described thus: Dissociation constant, pKa of the compound. In kind it is physicochemical.

The results in this text go back to ChEMBL document CHEMBL1817639, “Refinement of arylthiosemicarbazone pharmacophore in inhibition of mushroom tyrosinase” (Eur J Med Chem, 2011).

What is called IC50 is the concentration at which inhibition is half-maximal. Low readings indicate inhibition by little substance, high ones a need for much substance. By pKa is commonly meant the negative logarithm of the acid dissociation constant. A higher pKa goes with a weaker acid or stronger base.

`NC(=S)N/N=C/c1ccc2ccccc2c1` displayed an IC50 on Tyrosinase of 1100 µM.

In turn, `Cn1c(/C=N/N=C(/N)S)cc2ccccc21` had an IC50 on Tyrosinase of 1700 µM. Against the preceding compound, the IC50 is about 1.5-fold higher.

For the compound `NC(=S)N/N=C/CCc1ccccc1`, on Tyrosinase, 400 µM corresponded to half-maximal inhibition (IC50). This IC50 is about 4.2-fold lower than that of the compound before.

Turning to `NC(=S)N/N=C/c1c[nH]c2ccccc12`, on Tyrosinase, half-maximal inhibition (IC50) was put at 600 µM.

`NC(=S)N/N=C/c1ccc2ccccc2n1` displayed a concentration for half-maximal inhibition (IC50) at Tyrosinase of 70 µM.

Take `NC(=S)N/N=C/c1ccc2[nH]ccc2c1`: on Tyrosinase, the IC50 is more than 2000 µM.

Turning to `NC(=S)N/N=C/Cc1ccccc1`, on Tyrosinase, inhibition was half-maximal at 7 µM (IC50).

At Tyrosinase, `COc1coc(/C=N/NC(N)=S)cc1=O` showed an IC50 of more than 2000 µM.

In turn, `NC(=S)N/N=C/c1cc(=O)c(O)co1` came in with an IC50 at Tyrosinase of 11 µM. Moreover, the Ratio IC50 in data set [1] amounted to 9.

Regarding `N/C(S)=N/N=C/c1ccccn1`, the IC50 against Tyrosinase came out at 45 µM. In addition, the pKa in data set [2] stood at 5.

`NC(=S)N/N=C/c1cccc2ccccc12` showed a 50% inhibitory concentration (IC50) on Tyrosinase of 12 µM.

In turn, `NC(=S)N/N=C/c1ccc[nH]1` gave an IC50 against Tyrosinase of 8 µM. In data set [2], this compound gave a pKa of 0.5.

`Cn1cc(/C=N/NC(N)=S)c2ccccc21` came in with an IC50 on Tyrosinase of more than 2000 µM.

At Tyrosinase, `NC(=S)N/N=C/c1cccc(F)c1` showed an IC50 of 9 µM.

`Cn1ccc2cc(/C=N/NC(N)=S)ccc21` registered a 50% inhibitory concentration (IC50) on Tyrosinase of more than 2000 µM.

Regarding `NC(=S)N/N=C/c1ccccc1F`, the midpoint of inhibition against Tyrosinase, the IC50, lay at 32 µM.

In turn, `NC(=S)N/N=C/c1ccc(F)cc1` gave a half-maximal inhibitory concentration (IC50) on Tyrosinase of 11 µM.

The compound `NC(=S)N/N=C/c1cc2ccccc2[nH]1` returned a half-maximal inhibitory concentration (IC50) on Tyrosinase of 402 µM.

In the case of `Cc1[nH]c2ccccc2c1/C=N/NC(N)=S`, at Tyrosinase, the IC50 is more than 2000 µM.

At Tyrosinase, `NC(=S)N/N=C/c1ccco1` had an IC50 of 6 µM. The same compound gave a pKa in data set [2] of 0.5.
